Reference: patent publication US20230277449A1, “ORAL CAVITY POLYMERIC DELIVERY SYSTEMS” (YISSUM RESEARCH DEVELOPMENT COMPANY OF THE HEBREW …, priority 2020, published 2023)
In brackets after ≈: the same amount, converted by molar mass. Read-outs that look alike come from different tables or passages of the source.

Assays:
[1] = Monitored vital parameters after IV APO in pigs; format: in vivo, pig; details: 1 mg/kg IV APO, mean (lowest - highest)
Description: Pigs were fasted overnight before the experiments. […] Pigs were positioned on their back.

in vivo = details: pig
Description: 2.1.1 HPMC-based core ABPD preparation: All polymers were sieved through a 50-mesh sieve prior to their use.
The dispersion was slowly cooled with constant vigorous stirring to room temperature to obtain a solid. This solid was introduced into 8 mm flat-faced punch and die set. […] The diameter of the core was changed to 10.5 mm due to compression.
DDW and vigorously stirred until full dissolution to homogenous solution. The pH of the solution was adjusted to 5.9 by H3PO4 and KOH. The solution was cooled at room temperature for 10 min with continuous stirring.
2.1.8 In-vivo protocol of buccal administration: Following full recovery of 1 week, these (and additional) pigs underwent experiments with administration of buccal devices. The preparation of pigs for the experiments were done as previously described. Pigs were positioned on their left side. Inner side of the left cheek was gently cleaned with a gauze. […] The liquefied core was carefully collected and stored at -80° C. […] Cheeks were excised. […] The other half was fixated in 4% formaldehyde and stored for at least a month. Afterwards, these samples were trimmed, embedded in paraffin and sectioned. They were stained with Hematoxilyn and Eosin and underwent a histopathological examination. As a first step, each of the first 3 pigs received a different ABPD (as previously described): hydroxypropyl methylcellulose (HPMC) - based core, witepsol H15 - based core, or hydrogel - based core. After results evaluation, 3 additional pigs received hydrogel -based core ABPDs. Lastly, 1 pig received a hydrogel-based core ABPD with modified parameters.
The tubes were vigorously shaken for approximately 20 h. […] The supernatant was transferred to a clean tube, to which 0.3 ml of 1M NaOH and 0.7 ml 0.2 M Na2HPO4 were added. The tubes were vortex-mixed for 2 min. The pH was adjusted to 7 - 9 by NaOH and HCl. […] The supernatant was transferred to a clean tube and evaporated to dryness under vacuum. 3 ml of 0.1 M HCl were added to the tissue once again and vigorously shaken for 20 min. Afterwards, the tissue underwent the same procedure one more time with supernatant collected to respective tubes as previously. […] Samples were 2000-fold diluted in the reconstitution diluent and injected into LC-MS-MS system.
Following this analysis PK parameters were obtained.

[2] = Simulation of the results in pig to human setup; details: same ABPD conditions, CL difference, Eq. 2
Description: Plasma levels at steady state (Css) of the test substance following in-vivo buccal administration are calculated by Eq. 2:
where CL is the PK parameter of total clearance of the tested substance in-vivo.

[3] = Ex-vivo permeability of APO, MTP and ATN in Ussing diffusion chamber; format: in vitro ADME, pig
Description: Each chamber includes a heating block for temperature control and needle valves for adjustment of carbogen gas flow for oxygenation and gas lift stirring. Buccal tissues of female pigs, ~100 kg, were used in the experiments. Pigs were exposed to anesthetic agents, antibiotics, contrast agents and sacrificed by over exposure to KC1. […] Immediately following euthanasia, buccal tissue was removed and placed in ice-cold modified Ringer’s buffer (pH 7.4). Buccal mucosa segments were trimmed to 800-1000 µm by surgical scissors and tweezers and mounted into Ussing diffusion chambers. The exposed tissue surface area was 0.5 cm^2 and buffered solutions volume in each cell was 3 ml. The system was preheated to 35° C. Modified Ringer buffer was added to the receiver compartment and simulated saliva buffer to the donor side. The tissue oxygenation and the solution mixing were performed by bubbling with carbogen gas. The system was equilibrated for 30 min followed by replacing the solutions and adding 20 µl of the test solutions to the donor side of the chamber to commence the experiment.
Solutions were freshly prepared on the days of the experiments. […] When testing the effect of organic solvents, 100 µl of the simulated saliva in the donor chamber were replaced by 100 µl of 1:1EtOH:PG solution. When testing the effect of NLF 70 µl of the simulated saliva in the donor chamber were replaced by 70 µl of NLF. […] The constituents are melted at 37° C. and mixed until a clear yellow homogenous solution is obtained.
3.1.3 Experimental protocol: 100 µl samples were taken from receiver compartment at the beginning of the experiments, at half an hour and every hour until the end of the experiments. 100 µl of fresh Ringer’s buffer solution were added each time to receiver compartment. The dilution of the concentration of tested substances in the receiver compartment was accounted for. […] All samples were stored at -20° C. pending analysis.
The analysis conditions were as follows: XTerra MS (Waters Inc.) C18 Column (3.5 µm, 2.1 mm × 100 mm), temperature 45° C., flow rate 0.2 ml/min and mobile phase with a linear gradient as detailed in Table 23.
Statistical significance was stated for p<0.05. […] Papp calculation and simulations of steady state plasma levels for in-vivo testing
Apparent permeability (Papp) is calculated by Eq. 5: […]

[4] = Simulation to human plasma levels from ex-vivo Papp
Description: The flux (Jss) of the test substance via the buccal mucosa is calculated by Eq. 6:
Simulation of blood levels at steady state (Css) of the substances if administered in-vivo is calculated by Eq. 7:
where CL is the pharmacokinetic parameter of total clearance of the tested substance in-vivo.
Application area (A) was 50 cm^2 which corresponds to buccal area in humans.

[5] = Intravenous administration of APO to rats; format: in vivo; details: male, Wistar, rat, plasma, 2.0 mg/kg IV
Description: Prior to surgery rats were fasted overnight with free access to water. Animals were anesthetized for the period of surgery by intra-peritoneal injection of 1 ml/kg of ketamine-xylazine solution (9:1, respectively). An indwelling cannula was placed in the right jugular vein of each animal for systemic blood sampling. After the surgery, rats were returned to cages overnight with free access to food and water.
Following this analysis, PK parameters were obtained.

[6] = Simulation of rat plasma levels after buccal administration; details: rat 330 gr, Co = 19 mg/ml, A = 0.2 cm^2, Papp = 0.51*10^-6 cm/sec
Description: Papp through porcine buccal mucosa was selected (as lower Papp is of no clinical relevance).

[7] = Physicochemical properties stated in the text (log P, pKa, solubility); details: gelatin hydrogel, aqueous with cosolvent or surfactant or cyclodextrin, read-out: solubility in buffered hydrogel
[8] = cited from earlier work
[9] = cited from earlier work; remark: listed apart in the source
[10] = IV administration of APO to pigs, pharmacokinetics; details: female, pig, plasma, 1 mg/kg
Description: 2.1.7 In-vivo protocol of IV administration: Domestic female pigs (sus scrofa domesticus) of 35-40 kg were allowed to acclimate before the experiment. Pigs were fasted overnight before the experiments. On the morning of the experiment pigs were anesthetized by xylazine 1 mg/kg, midazolam 0.04 mg/kg, ketamine 5 mg/kg and propofol 4 mg/kg. Pigs were positioned on their back. Endotracheal tube was inserted, and pigs were respired with oxygen. […] Catheter was inserted into ear vein through which physiological saline was administered. Pigs received amoxicillin 15 mg/kg antibiotic and tolfenamic acid 2 mg/kg analgesic. An intra-jugular catheter was inserted for blood sampling. Pigs were constantly monitored for their respiration rate, rectal temperature, O2 saturation, heart rate and blood pressure. Cardiovascular parameters were obtained by blood pressure monitor with porcine adapted front leg cuff. […] Plasma was collected into tubes containing 10 µl mercaptoethanol and stored at -80° C. pending analysis. Isoflurane anesthesia was terminated, and pigs were recovered under veterinary surveillance to consciousness.
The samples were reconstituted in 100 µl 1:4 MeOH:DDW solution containing 0.01%^v/v formic acid and 0.1%^v/v mercaptoethanol and injected into LC-MS-MS system.
2.1.12 Chromatographic analysis of in-vivo samples: The chromatography was performed using a Shimadzu UHPLC System. The chromatographic separations were performed on a Kinetex™ (Phenomenex, CA, USA) column (EVO C18, 2.6 µm, 100 Å, 100 × 2.1 mm), protected by a SecurityGuard™ (Phenomenex, CA, USA) ULTRA cartridge (C18, 4 × 2 mm). The injection volume was 5 µl, temperature was 40° C.

Structure (SMILES): CN1CCc2cccc3c2[C@H]1Cc1ccc(O)c(O)c1-3 [APO, apomorphine]
- Diastolic blood press (mmHg) [1]: 43.1 (32 - 55) mmHg
- Heart rate (beats/min) [1]: 95.2 (74 - 120) beats/min
- O2 saturation (%) [1]: 97.7 (95 - 100) %
- Respiration rate kept at (min^-1) [1]: 12.2 (11- 13) min^-1
- Systolic blood press (mmHg) [1]: 81.7 (72 - 101) mmHg
- Rectal temp (°C) ([1]; four pigs): 38.2 (37.4 - 39.4) °C
- Cmax after removal smaller than with the four pigs (in vivo): 2 fold
- Cmax of the peak higher than Css (in vivo): 4 fold
- time of Cmax (in vivo): 8.7 h
- time of the peak after ABPD removal (in vivo): about 45 min
- Css experimentally obtained (in vivo; 1.37 mg/kg): 2.15 (±0.44) ng/ml
- theoretical Css predicted (in vivo; 1.37 mg/kg): 2.24 ng/mL
- AUC (in vivo; 2 mg/kg): 32.8 ng·h/mL
- AUC(0-inf) (in vivo; 2 mg/kg): 50.7 ng·h/mL
- Cmax (in vivo; 2 mg/kg): 9.7 ng/mL
- Css simulated for 70 kg human [2]: 4 to 6 ng/mL
- Papp lower at pH 5.9 than at pH 7.4 [3]: 6 fold
- Papp at […] ([3]; female, pig, pH 7.4, read-out: Apparent permeability (Papp)): 3.13 ×10⁻⁶ cm/s
- Papp ([3]; female, pig, pH 7.4 with 3.33% v/v of 1:1 ethanol: propylene glycol solution, read-out: Apparent permeability (Papp)): 11.6 ×10⁻⁶ cm/s
- Papp at 0.1 mM ([3]; female, pig, simulated saliva pH 5.9, mean (±SD), n=3, read-out: Apparent permeability (Papp)): 0.51 ×10⁻⁶ cm/s
- Papp at 0.1 mM ([3]; female, pig, simulated saliva pH 7.4, standard 0.1 mM, mean (±SD), n=3, read-out: Apparent permeability (Papp)): 3 ×10⁻⁶ cm/s
- Apparent permeability (Papp) ([3]; pH 7.4 with 3.33% v/v of 1:1 ethanol: propylene glycol solution): 11.63 10^-6 cm/sec
- lag-time ([3]; pH 7.4 without 10% v/v NLF): ~ 1 hour
- Apparent permeability (Papp) ([3]; simulated saliva pH 7.4, standard 0.1 mM, mean (±SD), n=3): 3.00 (0.26) 10^-6 cm/sec
- Jss calculated (mg/(cm^2*h)) ([4]; 1:1 ethanol: propylene glycol, 20 mg/ml): 0.84 mg/(cm^2*h)
- Jss calculated (mg/(cm^2*h)) ([4]; pH 5.9, 20 mg/ml): 0.04 mg/(cm^2*h)
- Jss calculated (mg/(cm^2*h)) ([4]; pH 7.4, 20 mg/ml): 0.22 mg/(cm^2*h)
- clearance [5]: 153 mL/min/kg
- Vd ([5]; read-out: volume of distribution): 3.3 L/kg
- calculated Css [6]: 2.3 ng/mL
- solubility [7]: 40 mg/mL (≈ 150 mM)
- CL ([8]; human, literature): 50 to 83 mL/min/kg
- Vd ([8]; human, literature): 1 to 2 L/kg
- excreted unchanged to urine ([8]; humans): up to 4%
- log P [9]: 2.0
- AUC(0-inf) [10]: 107 ng·h/mL
- Vd [10]: 6.6 L/kg
- clearance [10]: 218 mL/min/kg
